Test results reported in US20240294545A1 (CSPC Zhongqi Pharmaceutical Technology (Shijiazhuang) Co., …, priority 2020, published 2024).
Marks after values point to notes of the source that are not given here.

Key:
ATM = ATM (Homo sapiens (Human), UniProt Q13315); assay: Caliper mobility shift assay for ATM; type: biochemical; conditions: read-out: IC50 of inhibitory activity on ATM kinase
Experimental: 1.2 Determination of the Inhibitory Activities of Compounds on ATM: Caliper Mobility Shift Assay for ATM
To a 96-well plate, 98 μL of DMSO and 2 μL of the 10 mM stock solution were added and mixed evenly so that the concentration of the solution was 200 μM.
Based on the inhibitory rates of the compound at different concentrations, IC50 was calculated according to the formula: Y=Bottom+(Top−Bottom)/(1+(IC50/X)^HillSlope).

ATR = ATR (Homo sapiens (Human), UniProt Q13535); assay: Caliper mobility shift assay for ATR; type: biochemical; conditions: read-out: IC50 of kinase inhibitory activity, ATR
Experimental: 1.6 Determination of the Inhibitory Activity of Compounds on ATR: Caliper Mobility Shift Assay for ATR
• (1) Preparation of 1× kinase buffer and reaction termination solution • 1) 1× kinase buffer • 50 mM HEPES, pH 7.5 • 0.0015% Brij-35 • […] • 2) Reaction termination solution • 100 mM HEPES, pH 7.5 • 0.015% Brij-35 • 0.2% Coating Reagent #3 • 50 mM EDTA • (2) Preparation of test compound • 1) The compound was dissolved in DMSO to yield a stock solution. Before the assay, to a 96-well plate, 30 μL of a 10 mM stock solution was taken and added with 60 μL of DMSO. […]

mTOR = mTOR (Homo sapiens (Human), UniProt P42345); assay: LanceUltra kinase assay for mTOR; type: biochemical; conditions: read-out: IC50 of kinase inhibitory activity, mTOR
DNA-PK = DNA-PK (Homo sapiens (Human), UniProt P78527); assay: ADP-Glo kinase assay for DNA-PK; type: biochemical; conditions: read-out: IC50 of kinase inhibitory activity, DNA-PK
Experimental: 1.4 Determination of the Inhibitory Activities of Compounds on DNA-PK Kinase: ADP-Glo Kinase Assay
• (1) Preparation of 1× kinase buffer • 40 mM Tris, pH 7.5 • 0.0055% Brij-35 • 20 mM MgCl2 • 0.05 mM DTT • (2) Preparation of test compound • 1) The compound was dissolved in DMSO to yield a stock solution. Before the assay, the stock solution of the compound was diluted with DMSO to yield a 100× solution at a concentration that is 100 times a target concentration for assay. If the target concentration was […], the stock solution should be diluted to yield a 1 mM solution at this step. • 2) 100 μL of DMSO was added, respectively, into two blank wells in the same 96 well plate, corresponding to the total reaction control without compound and the blank control without enzyme. • 3) Preparation of test plate: 50 nL of the compound solution in each of the above wells was taken to a 384-well plate as a test plate. • (3) Kinase reaction • 1) DNA-PK kinase was dissolved in 1× kinase buffer to yield a 2× enzyme solution that is twice the final concentration. 2.5 μL of the 2× enzyme solution was taken to each well of the test plate. The blank control without enzyme was added with 2.5 μL of the 1× kinase buffer instead of the enzyme solution. […]

PI3Kα (p110α/p85α) = PI3Kα (p110α/p85α) (Homo sapiens (Human), UniProt P42336); assay: ADP-Glo kinase assay for PI3Kα; type: biochemical; conditions: read-out: IC50 of kinase inhibitory activity, PI3K α
Experimental: (§1) 1.3 Determination of the Inhibitory Activities of Compounds on PI3Kα, PI3Kβ, PI3Kγ, and PI3Kδ Kinase: ADP-Glo Kinase Assay
(§2) Experimental procedures • (1) Preparation of 1× kinase buffer • 50 mM HEPES, pH 7.5 • 3 mM MgCl2 • 1 mM EGTA • 100 mM NaCl • 0.03% CHAPS • 2 mM DTT • (2) Preparation of test compound • 1) Dissolution and dilution of compound: • The compound was dissolved in DMSO to yield a stock solution. Before the assay, the stock solution of the compound was diluted with DMSO in a 384-well plate to yield a 100× solution at a concentration that is 100 times a target concentration for assay. • 50 μL of DMSO was added, respectively, into two blank wells in the same 384 well plate, corresponding to the total reaction control without compound and the blank control without enzyme. • 2) Preparation of test plate: 50 nL of the compound solution in each of the above wells was taken to a test plate. • (3) Kinase reaction • 1) PI3Kα, PI3Kβ, PI3Kγ, and PI3Kδ kinases were dissolved, respectively, in 1× kinase buffer to yield a 2× enzyme solution at a concentration that is twice the final concentration. 2.5 µL of the 2× enzyme solution was taken to each well of the test plate. The blank control without enzyme was added with 2.5 μL of the 1× kinase buffer instead of the enzyme solution. […]

PI3Kβ (p110β) = assay: ADP-Glo kinase assay for PI3Kβ; type: biochemical; conditions: read-out: IC50 of kinase inhibitory activity, PI3K β
Experimental: as §1, §2

PI3Kγ (pp110gamma) = PI3Kγ (pp110gamma) (Homo sapiens (Human), UniProt P48736); assay: ADP-Glo kinase assay for PI3Kγ; type: biochemical; conditions: read-out: IC50 of kinase inhibitory activity, PI3K γ
Experimental: as §1, §2

PI3Kδ (p110δ/p85δ) = PI3Kδ (p110δ/p85δ) (Homo sapiens (Human), UniProt O00329); assay: ADP-Glo kinase assay for PI3Kδ; type: biochemical; conditions: read-out: IC50 of kinase inhibitory activity, PI3K δ
Experimental: as §1, §2

[1] = system: subcutaneous xenograft tumor of human non-small cell lung cancer cell line NCI-H441; assay: NCI-H441 subcutaneous xenograft, combined with irinotecan liposome injection; type: in vivo, NU/NU mice
Experimental: 6 Efficacy Test of the Compounds of the Present Disclosure Combined with Irinotecan Liposome Injection on Inhibiting the Growth of Subcutaneous Xenograft Tumor of Human Non-Small Cell Lung Cancer Cell Line NCI-H441
6.1 Experimental Animals: NU/NU Mice, SPF, Female, 20 to 30 g.
Irinotecan liposome injection (HE072), 43 mg:10 mL, milky white liquid, batch No. B37191202, provided by Preparation Research Institute 2 from CSPC Zhongqi Pharmaceutical Technology (Shijiazhuang) Co., Ltd., diluted to an appropriate concentration with 5% glucose injection while testing.
NCI-H441 cells, provided by Nanjing Kebai Biotechnology Co., Ltd.; 1640 culture medium (gibco Company):fetal bovine serum (Lanzhou Bailing)=90%:10%, 37° C., 5% CO2.
NU/NU nude mice were subcutaneously inoculated with NCI-H441 human non-small cell lung cancer cells. When the mean tumor volume reached 170 to 172 mm^3 (15 days after inoculation), the animals were evenly divided into groups according to the tumor volume (d0), with 6 mice in each group. 2.5 mg/kg of HE072 was administered intraperitoneally once a week for 2 times. Vehicle control, 25 mg/kg of A-193, 25 mg/kg of A-182, and 25 mg/kg of AZD1390 were administered intragastrically once a day, from Monday to Thursday every week except Friday to Sunday, for 2 weeks (8 times). The tumor volume was measured twice a week, the body weight of mouse was weighed every day, and the data were recorded. The tumor volume (TV) was calculated according to the formula: TV=½×a×b2, wherein a and b represent the long and short diameters of tumor, respectively. Tumor growth inhibitory rate TGI (%)=[1−(Ti−T0)/(Vi−V0)]×100, wherein Ti represents the mean tumor volume of a given treatment group on a certain day; TO represents the mean tumor volume of this treatment group at the beginning of administration; Vi represents the mean tumor volume of the vehicle control group on a certain day (the same day as that in Ti); V0 represents the mean tumor volume of the vehicle control group at the beginning of administration. At the end of the test (d17), the animals were sacrificed, the tumors were stripped and weighed, and the tumor weight inhibitory rates were calculated.

[2] = system: intracranial murine glioma GL-261-Luc; assay: Intracranial murine glioma GL-261-Luc model, combined with radiotherapy; type: in vivo, C57BL/6 mice
Experimental: 8 Efficacy Test of the Compounds of the Present Disclosure Combined with Radiotherapy in the Intracranial Murine Glioma GL-261-Luc Model
8.1 Experimental Animals: C57BL/6 Mice, SPF, Female, 19 to 22 g.
GL-261-Luc tumor cells, DMEM medium:fetal bovine serum=90%:10%, accompanied by adding […] L-Glu, 37° C., 5% CO2.
Female C57BL/6 mice were anesthetized with Shutai 50 (60 mg/mL) and thiazine (1.5 mg/mL). Buprenorphine (0.1 mg/kg) was injected subcutaneously 30 min before operation and 6 h after operation to relieve pain. The operation area was disinfected with 70% ethanol solution. A sagittal incision was made on the parietal-occipital bone of anesthetized mice with a sterile scalpel, after cleaning the exposed skull surface with 3% hydrogen peroxide solution, tumor cells were injected. After injection, the skull was cleaned with 3% hydrogen peroxide solution, dried with a sterile dry cotton swab, and the incision was sutured. The state of mice was examined continuously to ensure that mice fully recovered from anesthesia.
The inoculated mice were weighed and intraperitoneally injected with […] (150 mg/kg). After 10 min injection, the animals were anesthetized with a mixture of oxygen and isoflurane. When the animal was completely anesthetized, it was moved into the imaging room for bioluminescence detection. The bioluminescence signal of the whole animal was measured and recorded for the image.
Bioluminescence detection was performed on the second day after operation, and the tumor-bearing mice were randomly divided into groups according to the intensity of bioluminescence. The specific groups were as follows. The administration route was intragastric administration and then JR 1 h after administration.
After grouping, bioluminescence detection was performed 1 to 2 times a week, according to the bioluminescence data, tumor growth inhibitory rate was calculated as follows: TGI (%)=[1−(Ti−T0)/(Vi−V0)]×100, wherein Ti represents the mean bioluminescence data of a given treatment group on a certain day; T0 represents the mean bioluminescence data of this treatment group at the beginning of administration; Vi represents the mean bioluminescence data of the vehicle control group on a certain day (the same day as that in Ti); V0 represents the mean bioluminescence data of the vehicle control group at the beginning of administration.

[3] = system: subcutaneous xenograft tumor of human glioblastoma LN-18; assay: LN-18 subcutaneous xenograft, combined with radiotherapy; type: in vivo, NOG mice; conditions: compound 20 mg/kg intragastric qd × 5 + IR 1 Gy, day 17
How it was run: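 Female NOG mice (18–22 g) bearing subcutaneous LN-18 tumours (1.5*10^7 cells, right costal region) were grouped at 100–150 mm^3; radiotherapy followed compound dosing by 1 h. Caliper volumes twice weekly (0.5×long×short^2); TGI % derived from treated vs control mean volume changes from day 0.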

[4] = compound 25 mg/kg intragastric + irinotecan liposome 2.5 mg/kg ip, day 17
[5] = compound 25 mg/kg intragastric + irinotecan liposome 2.5 mg/kg ip, end of test d17

ATM, sequence (Q13315 whole entry): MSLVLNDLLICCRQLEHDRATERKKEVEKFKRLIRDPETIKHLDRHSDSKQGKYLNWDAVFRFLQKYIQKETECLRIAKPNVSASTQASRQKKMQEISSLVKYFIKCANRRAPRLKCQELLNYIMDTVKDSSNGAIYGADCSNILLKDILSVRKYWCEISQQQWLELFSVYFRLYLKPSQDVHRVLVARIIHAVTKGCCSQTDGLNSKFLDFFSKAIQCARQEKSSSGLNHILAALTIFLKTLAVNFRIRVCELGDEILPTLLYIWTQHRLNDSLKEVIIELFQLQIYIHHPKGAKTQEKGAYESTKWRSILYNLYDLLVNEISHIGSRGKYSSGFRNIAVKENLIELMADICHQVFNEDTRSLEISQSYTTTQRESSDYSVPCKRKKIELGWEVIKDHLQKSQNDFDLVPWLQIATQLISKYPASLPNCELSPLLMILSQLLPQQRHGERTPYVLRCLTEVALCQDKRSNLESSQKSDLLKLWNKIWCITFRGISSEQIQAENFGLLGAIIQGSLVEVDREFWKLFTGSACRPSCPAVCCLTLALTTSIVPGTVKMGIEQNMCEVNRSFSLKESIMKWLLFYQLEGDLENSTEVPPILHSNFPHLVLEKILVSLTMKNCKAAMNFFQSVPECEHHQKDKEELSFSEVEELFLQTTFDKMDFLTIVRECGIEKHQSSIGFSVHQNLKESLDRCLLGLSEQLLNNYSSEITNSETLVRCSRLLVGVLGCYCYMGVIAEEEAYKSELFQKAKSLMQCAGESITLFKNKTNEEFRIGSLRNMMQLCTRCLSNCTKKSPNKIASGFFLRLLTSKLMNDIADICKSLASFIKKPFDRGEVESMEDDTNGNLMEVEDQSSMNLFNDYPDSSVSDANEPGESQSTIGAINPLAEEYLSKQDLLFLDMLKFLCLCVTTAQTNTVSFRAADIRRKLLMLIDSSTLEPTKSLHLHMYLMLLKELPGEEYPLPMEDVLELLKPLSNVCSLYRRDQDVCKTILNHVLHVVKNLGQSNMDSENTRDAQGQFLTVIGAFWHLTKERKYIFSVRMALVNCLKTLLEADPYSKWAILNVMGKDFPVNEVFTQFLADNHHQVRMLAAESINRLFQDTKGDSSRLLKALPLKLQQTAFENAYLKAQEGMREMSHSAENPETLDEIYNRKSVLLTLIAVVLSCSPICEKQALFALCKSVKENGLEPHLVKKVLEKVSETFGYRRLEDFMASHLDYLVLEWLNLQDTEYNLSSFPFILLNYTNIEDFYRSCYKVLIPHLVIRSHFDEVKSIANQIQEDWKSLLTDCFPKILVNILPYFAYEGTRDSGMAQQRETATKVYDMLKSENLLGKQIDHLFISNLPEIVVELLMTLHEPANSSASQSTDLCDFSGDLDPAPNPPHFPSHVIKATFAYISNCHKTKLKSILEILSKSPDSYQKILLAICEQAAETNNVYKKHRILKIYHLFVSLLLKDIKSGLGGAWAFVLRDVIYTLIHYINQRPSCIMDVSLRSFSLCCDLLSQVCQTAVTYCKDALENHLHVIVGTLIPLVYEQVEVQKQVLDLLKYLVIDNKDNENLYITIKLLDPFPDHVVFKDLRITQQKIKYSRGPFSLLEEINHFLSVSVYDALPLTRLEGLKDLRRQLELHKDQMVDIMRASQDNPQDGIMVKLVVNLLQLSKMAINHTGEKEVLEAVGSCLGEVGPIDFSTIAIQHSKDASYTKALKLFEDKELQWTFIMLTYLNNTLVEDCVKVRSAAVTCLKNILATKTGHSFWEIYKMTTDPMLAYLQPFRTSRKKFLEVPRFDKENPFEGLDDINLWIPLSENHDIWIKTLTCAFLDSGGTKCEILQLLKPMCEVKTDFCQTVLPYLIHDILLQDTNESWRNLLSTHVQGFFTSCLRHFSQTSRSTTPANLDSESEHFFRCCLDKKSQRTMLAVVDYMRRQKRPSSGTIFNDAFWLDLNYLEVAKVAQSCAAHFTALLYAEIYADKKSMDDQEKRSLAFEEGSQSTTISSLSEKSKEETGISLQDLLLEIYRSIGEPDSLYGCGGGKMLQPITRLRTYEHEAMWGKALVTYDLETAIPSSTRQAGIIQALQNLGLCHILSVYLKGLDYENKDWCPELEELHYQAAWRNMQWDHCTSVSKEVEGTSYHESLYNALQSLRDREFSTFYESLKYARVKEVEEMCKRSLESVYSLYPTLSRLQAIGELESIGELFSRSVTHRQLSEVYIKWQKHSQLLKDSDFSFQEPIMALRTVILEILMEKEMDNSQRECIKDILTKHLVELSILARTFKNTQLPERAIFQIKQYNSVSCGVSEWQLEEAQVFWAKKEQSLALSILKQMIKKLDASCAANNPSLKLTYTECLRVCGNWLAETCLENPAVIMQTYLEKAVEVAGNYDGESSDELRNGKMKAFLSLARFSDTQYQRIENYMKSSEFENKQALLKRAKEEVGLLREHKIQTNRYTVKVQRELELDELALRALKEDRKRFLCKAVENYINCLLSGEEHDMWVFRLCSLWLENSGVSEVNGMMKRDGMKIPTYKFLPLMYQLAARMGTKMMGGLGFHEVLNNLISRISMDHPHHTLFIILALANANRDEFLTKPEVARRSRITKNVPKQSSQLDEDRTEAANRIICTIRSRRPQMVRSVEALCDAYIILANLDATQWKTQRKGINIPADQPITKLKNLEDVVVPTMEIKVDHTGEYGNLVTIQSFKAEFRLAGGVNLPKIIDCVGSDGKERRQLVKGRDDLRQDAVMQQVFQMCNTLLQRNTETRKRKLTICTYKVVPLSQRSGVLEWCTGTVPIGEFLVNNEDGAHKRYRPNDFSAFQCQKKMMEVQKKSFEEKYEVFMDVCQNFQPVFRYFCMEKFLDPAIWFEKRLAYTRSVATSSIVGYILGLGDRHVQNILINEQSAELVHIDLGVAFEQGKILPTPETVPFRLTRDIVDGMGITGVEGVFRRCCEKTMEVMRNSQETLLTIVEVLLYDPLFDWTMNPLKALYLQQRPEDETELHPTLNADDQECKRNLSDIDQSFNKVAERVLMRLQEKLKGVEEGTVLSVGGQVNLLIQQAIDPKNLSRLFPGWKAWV
PI3Kδ (p110δ/p85δ), sequence (O00329 whole entry): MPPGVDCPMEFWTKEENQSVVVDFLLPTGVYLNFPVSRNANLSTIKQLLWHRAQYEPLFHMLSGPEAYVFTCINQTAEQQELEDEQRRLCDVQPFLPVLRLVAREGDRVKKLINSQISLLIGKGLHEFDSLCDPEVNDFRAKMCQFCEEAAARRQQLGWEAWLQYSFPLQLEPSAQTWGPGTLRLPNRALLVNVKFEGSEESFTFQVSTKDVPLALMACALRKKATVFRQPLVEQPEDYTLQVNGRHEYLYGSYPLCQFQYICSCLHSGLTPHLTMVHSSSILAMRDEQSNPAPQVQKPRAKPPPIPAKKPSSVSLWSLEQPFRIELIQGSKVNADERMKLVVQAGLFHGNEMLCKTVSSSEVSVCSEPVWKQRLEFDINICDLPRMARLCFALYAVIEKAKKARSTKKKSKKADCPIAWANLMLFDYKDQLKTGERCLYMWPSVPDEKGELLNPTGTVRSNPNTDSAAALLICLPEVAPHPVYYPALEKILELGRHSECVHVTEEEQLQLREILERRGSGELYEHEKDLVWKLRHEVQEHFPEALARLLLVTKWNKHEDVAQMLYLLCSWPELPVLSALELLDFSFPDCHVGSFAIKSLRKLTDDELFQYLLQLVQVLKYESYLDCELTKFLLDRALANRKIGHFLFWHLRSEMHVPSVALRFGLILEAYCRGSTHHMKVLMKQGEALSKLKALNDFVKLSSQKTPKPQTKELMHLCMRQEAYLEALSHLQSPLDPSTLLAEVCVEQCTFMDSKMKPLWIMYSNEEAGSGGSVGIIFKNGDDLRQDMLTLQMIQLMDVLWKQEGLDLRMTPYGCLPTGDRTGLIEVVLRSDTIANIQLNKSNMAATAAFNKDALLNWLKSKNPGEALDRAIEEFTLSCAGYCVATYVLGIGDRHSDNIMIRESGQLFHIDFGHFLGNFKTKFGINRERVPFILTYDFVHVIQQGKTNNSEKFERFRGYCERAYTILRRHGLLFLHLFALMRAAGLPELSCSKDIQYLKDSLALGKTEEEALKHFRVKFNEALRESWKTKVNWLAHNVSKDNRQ
PI3Kδ (p110δ/p85δ), sequence (P27986 whole entry partner): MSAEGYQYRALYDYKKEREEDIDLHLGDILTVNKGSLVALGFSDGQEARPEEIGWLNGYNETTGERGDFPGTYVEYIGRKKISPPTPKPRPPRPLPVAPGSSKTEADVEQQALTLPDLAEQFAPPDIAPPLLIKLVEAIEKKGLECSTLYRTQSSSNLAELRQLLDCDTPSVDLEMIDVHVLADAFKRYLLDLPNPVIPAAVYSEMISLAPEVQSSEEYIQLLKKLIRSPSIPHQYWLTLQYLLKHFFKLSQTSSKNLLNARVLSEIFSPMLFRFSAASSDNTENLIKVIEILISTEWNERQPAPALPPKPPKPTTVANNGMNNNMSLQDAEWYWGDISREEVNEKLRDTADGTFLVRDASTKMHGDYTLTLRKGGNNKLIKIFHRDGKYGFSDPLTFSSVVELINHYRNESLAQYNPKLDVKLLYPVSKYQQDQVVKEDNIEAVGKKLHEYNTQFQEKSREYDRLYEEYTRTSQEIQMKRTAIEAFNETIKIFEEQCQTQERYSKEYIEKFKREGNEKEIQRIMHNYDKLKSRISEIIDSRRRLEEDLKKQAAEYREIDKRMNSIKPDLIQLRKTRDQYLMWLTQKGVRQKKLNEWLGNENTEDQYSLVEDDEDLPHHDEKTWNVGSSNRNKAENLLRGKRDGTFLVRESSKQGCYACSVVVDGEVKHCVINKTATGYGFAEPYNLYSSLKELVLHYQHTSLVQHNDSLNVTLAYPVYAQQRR

IC50 (ATM) [nM] | IC50 (ATR) [nM] | IC50 (mTOR) [nM] | IC50 (DNA-PK) [nM] | IC50 (PI3Kα (p110α/p85α)) [nM] | IC50 (PI3Kβ (p110β)) [nM] | IC50 (PI3Kγ (pp110gamma)) [nM] | IC50 (PI3Kδ (p110δ/p85δ)) [nM] | Structure (SMILES) | inhibitory effect on tumor volume and tumor weight, in words ([1]; combined with irinotecan liposome injection, compared with AZD1390) | D 17 TGI [1, 4] [%] | D 17 TV (MEAN ± SD) [1, 4] | Tumor weight [1, 5] [g] | Tumor weight inhibitory rate [1, 5] [%] | anti-tumor activity, in words ([2]; combined with radiotherapy, compared with AZD1390) | D17 BLI ([2]; compound 10 mg/kg intragastric qd × 5 + IR 2 Gy, day 17) | D 17 TGI ([2]; compound 10 mg/kg intragastric qd × 5 + IR 2 Gy, day 17, from bioluminescence) [%] | D 17 TGI [3] [%] | D 17 TV (MEAN ± SD) [3]
0.52 | > 10000 | 1280 | 852 | 6280 | > 10000 | > 10000 | > 10000 | CC[C@@H]1COc2c(-c3ccc(OCCCN4CCCCC4)nc3)c(F)cc3ncc4c(c23)n1c(=O)n4C [Example A-22, (R)-10-ethyl-6-fluoro-2-methyl-7-(6-(3-(piperidin-1-yl)propoxy)pyridin-3-yl)-9,10-dihydro-8-oxa-2,4,10a-triazanaphtho[2,1,8-cde]azulen-1(2H)-one] |  |  |  |  |  |  |  |  |  | 
0.46 |  |  |  |  |  |  |  | C[C@@H]1COc2c(-c3ccc(OCCCN4CCCCC4)nc3)ccc3ncc4c(c23)n1c(=O)n4C [Example A-182, (R)-2,10-dimethyl-7-(6-(3-(piperidin-1-yl)propoxy)pyridin-3-yl)-9,10-dihydro-8-oxa-2,4,10a-triazanaphtho[2,1,8-cde]azulen-1(2H)-one] | higher than those of AZD1390 | 75.1 | 278.5 ± 94.1***^## mm^3 | 0.26 ± 0.07 | 56.1 | equivalent to that of AZD1390 | 5.24*** LOG10 | 110.08 | 85.5 | 271 ± 107***^# mm^3
